Test results as given in patent publication US11737989B2, “Clevidipine nanoparticles and pharmaceutical compositions thereof” (CHIESI Farmaceutici S.p.A., priority 2014, dated 2023).

How the values were obtained:
[1] = Oxidative degradation of clevidipine: influence of oxygen content in headspace (H324/78); format: physicochemical; details: exposed to ambient light
Source text: Nanoparticle formulations with clevidipine (formulation numbers 31, 40 and 42) as well as clevidipine solutions were purged either with nitrogen or compressed air, and exposed to ambient light to determine the effect of head space oxygen on the formation of oxidative degradation product, H324/78.

[2] = in vivo; cited from earlier work
[3] = cited from earlier work

CCCC(=O)OCOC(=O)C1=C(C)NC(C)=C(C(=O)OC)C1c1cccc(Cl)c1Cl (centres unmarked) [Clevidipine, clevidipine]
H324/78 (% Area) ([1]; purged with compressed air (Air)): 3.06 % Area
H324/78 (% Area) ([1]; purged with nitrogen (N2)): 2.54 % Area
Initial phase half-life [2]: about one minute
Solubility in lipids [3]: moderate
Solubility in water [3]: negligible
